Measurements from patent publication US9302999B2, “Substituted triazoles as herbicides” (E. I. DU PONT DE NEMOURS AND COMPANY, priority 2012, dated 2016).

Assays:
Assay type in all cases: in vivo
[1] = test system: kochia (Kochia scoparia); test: Test D pre-/postemergence: kochia
Source text: (§1) Seeds of plant species selected from bluegrass (annual bluegrass, Poa annua), blackgrass (Alopecurus myosuroides), canarygrass (Phalaris minor), chickweed (common chickweed, Stellaria media), galium (catchweed bedstraw, Galium aparine), bromegrass, downy (downy bromegrass, Bromus tectorum), field poppy (Papaver rhoeas), field violet (Viola arvensis), foxtail, green (green foxtail, Setaria viridis), deadnettle (henbit deadnettle, Lamium amplexicaule), ryegrass, Italian (Italian ryegrass, Lolium multiflorum), kochia (Kochia scoparia), lambsquarters (Chenopodium album), oilseed rape (Brassica napus), pigweed (Amaranthus retroflexus), Russian thistle (Salsola iberica), chamomile (scentless chamomile, Matricaria inodora), speedwell (bird's-eye speedwell, Veronica persica), barley, spring (spring barley, Hordeum vulgare), wheat, spring (spring wheat, Triticum aestivum), buckwheat, wild (wild buckwheat, Polygonum convolvulus), mustard, wild (wild mustard, Sinapis arvensis), oat, wild (wild oat, Avena fatua), radish, wild (wild radish, Raphanus raphanistrum), windgrass (Apera spica-venti), barley, winter (winter barley, Hordeum vulgare), and wheat, winter (winter wheat, Triticum aestivum) were planted into a silt loam soil and treated preemergence with test chemicals formulated in a non-phytotoxic solvent mixture which included a surfactant. At the same time, these same crop and weed species were planted in pots containing the planting medium comprising spaghnum peat moss, vermiculite, wetting agent and starter nutrients and treated with postemergence applications of the test chemicals formulated in the same manner. Plants ranged in height from 2 to 18 cm (1- to 4-leaf stage).
(§2) Treated plants and controls were maintained in a controlled growth environment for 14 to 21 days after which time all species were compared to controls and visually evaluated. Plant response ratings, summarized in Table D, are based on a scale of 0 to 100 where 0 is no effect and 100 is complete control. A dash (-) response means no test result.

[2] = test system: mustard, wild (wild mustard, Sinapis arvensis); test: Test D pre-/postemergence: mustard, wild
Source text: as §1, §2

[3] = test system: Russian thistle (Salsola kali); test: Test C pre-/postemergence: Russian thistle; conditions: Preemergence
Source text: Seeds of plant species selected from blackgrass (Alopecurus myosuroides), bromegrass, downy (downy bromegrass, Bromus tectorum), foxtail, green (green foxtail, Setaria viridis), ryegrass, Italian (Italian ryegrass, Lolium multiflorum), winter wheat (Triticum aestivum), wild oat (Avena fatua), galium (catchweed bedstraw, Galium aparine), bermudagrass (Cynodon dactylon), surinam grass (Brachiaria decumbens), cocklebur (common cocklebur, Xanthium strumarium), corn (Zea mays), large crabgrass (Digitaria sanguinalis), woolly cupgrass (Eriochloa villosa), foxtail, giant (giant foxtail, Setaria faberii), goosegrass (Eleusine indica), johnsongrass (Sorghum halepense), kochia (Kochia scoparia), lambsquarters (Chenopodium album), morningglory (Ipomoea coccinea), nightshade (eastern black nightshade, Solanum ptycanthum), nutsedge, yellow (yellow nutsedge, Cyperus esculentus), pigweed (Amaranthus retroflexus), ragweed (common ragweed, Ambrosia elation), soybean (Glycine max), common (oilseed) sunflower (Helianthus annuus), Russian thistle (Salsola kali) and velvetleaf (Abutilon theophrasti) were planted into a blend of loam soil and sand and treated preemergence with test chemicals formulated in a non-phytotoxic solvent mixture which included a surfactant.
At the same time, plants selected from these crop and weed species and also barley (winter barley, Hordeum vulgare), canarygrass (Phalaris minor), chickweed (common chickweed, Stellaria media) windgrass (Apera spica-venti) and deadnettle (henbit deadnettle, Lamium amplexicaule) were planted in pots containing Redi-Earth® planting medium (Scotts Company, 14111 Scottslawn Road, Marysville, Ohio 43041) comprising spaghnum peat moss, vermiculite, wetting agent and starter nutrients and treated with postemergence applications of test chemicals formulated in the same manner. Plants ranged in height from 2 to 18 cm (1- to 4-leaf stage) for postemergence treatments.
as §2, with “greenhouse” for “controlled growth environment”, “13” for “14”, “15 days,” for “21 days”, “C,” for “D,”

[4] = test system: corn (Zea mays); test: Test F pre-/postemergence: corn
Source text: (§3) Seeds of plant species selected from corn (Zea mays), soybean (Glycine max), velvetleaf (Abutilon theophrasti), lambsquarters (Chenopodium album), poinsettia, wild (wild poinsettia, Euphorbia heterophylla), pigweed, palmer (palmer pigweed, Amaranthus palmeri), waterhemp (common waterhemp, Amaranthus rudis), surinam grass (Brachiaria decumbens), crabgrass, Brazil (Brazilian crabgrass, Digitaria horizontalis), panicum, fall (fall panicum Panicum dichotomiflorum), crabgrass, large (large crabgrass, Digitaria sanguinalis), foxtail, giant (giant foxtail, Setaria faberii), foxtail, green (green foxtail Setaria viridis), goosegrass (Eleusine indica), ragweed (common ragweed, Ambrosia elatior), barnyardgrass (Echinochloa crus-galli), sandbur (southern sandbur, Cenchrus echinatus), arrowleaf sida (Sida rhombifolia), ryegrass, Italian (Italian ryegrass, Lolium multiflorum), dayflower, VA (Virginia (VA) dayflower, Commelina virginica), field bindweed (Convolvulus arvensis), cocklebur (common cocklebur, Xanthium strumarium), morningglory (Ipomoea coccinea), nightshade (eastern black nightshade, Solanum ptycanthum), kochia (Kochia scoparia), nutsedge, yellow (yellow nutsedge, Cyperus esculentus), johnsongrass (Sorghum halepense), smartweed (ladysthumb smartweed, Polygonum persicaria), and beggarticks (hairy beggarticks, Bidens pilosa), were planted into a silt loam soil and treated preemergence with test chemicals formulated in a non-phytotoxic solvent mixture which included a surfactant. At the same time, plants selected from these crop and weed species and also pigweed (Amaranthus retroflexus), waterhemp_RES1 (ALS/Triazine resistant common waterhemp, Amaranthus rudis) and waterhemp_RES2 (ALS/HPPD resistant common waterhemp, Amaranthus rudis) were planted in pots containing a planting medium comprising spaghnum peat moss, vermiculite, wetting agent and starter nutrients treated with postemergence applications of some of the test chemicals formulated in the same manner. Plants ranged in height from 2 to 18 cm for postemergence treatments (1- to 4-leaf stage).
as §2, with “greenhouse” for “controlled growth environment”, “days,” for “days”, “E,” for “D,”

[5] = test system: sandbur (southern sandbur, Cenchrus echinatus); test: Test F pre-/postemergence: sandbur
Source text: as §3
as §2, with “greenhouse” for “controlled growth environment”, “days,” for “days”, “E,” for “D,”

[6] = Postemergence, 31 g ai/ha, scale 0 to 100 (0 no effect, 100 complete control)
[7] = Postemergence, 62 g ai/ha, scale 0 to 100 (0 no effect, 100 complete control)
[8] = Postemergence, 125 g ai/ha, scale 0 to 100, 0 no effect, 100 complete control
[9] = Postemergence, 250 g ai/ha, scale 0 to 100 (0 no effect, 100 complete control)
[10] = Postemergence, 16 g ai/ha, scale 0 to 100
[11] = 125 g ai/ha, scale 0 to 100, 0 no effect, 100 complete control
[12] = 250 g ai/ha, scale 0 to 100, 0 no effect, 100 complete control
[13] = Postemergence, 8 g ai/ha, scale 0 to 100
[14] = Postemergence, 31 g ai/ha, scale 0 to 100
[15] = Postemergence, 62 g ai/ha, scale 0 to 100
[16] = Postemergence, 125 g ai/ha, scale 0 to 100
[17] = Preemergence, 16 g ai/ha, scale 0 to 100, 0 no effect, 100 complete control
[18] = Preemergence, 31 g ai/ha, scale 0 to 100, 0 no effect, 100 complete control
[19] = Preemergence, 62 g ai/ha, scale 0 to 100
[20] = Preemergence, 125 g ai/ha, scale 0 to 100
[21] = Preemergence, 250 g ai/ha, scale 0 to 100
[22] = Postemergence, 250 g ai/ha, scale 0 to 100

SMILES: Cc1nn(-c2ccc(C(F)(F)F)cn2)nc1Oc1ccnc(C(F)(F)F)c1 [Compound 23]
- Plant response rating: Kochia [1, 6]: 80
- Plant response rating: Kochia [1, 7]: 85
- Plant response rating: Kochia [1, 8]: 90
- Plant response rating: Kochia [1, 9]: 95
- Plant response rating, Kochia [1, 10]: 20
- Plant response rating: Mustard, Wild [2, 6]: 40
- Plant response rating: Mustard, Wild [2, 7]: 85
- Plant response rating: Mustard, Wild [2, 8]: 100
- Plant response rating: Mustard, Wild [2, 9]: 100
- Plant response rating, Mustard, Wild [2, 10]: 20

SMILES: Fc1ccc(-n2nc(Cc3ccnc(C(F)(F)F)c3)c(OC(F)F)n2)cc1 [Compound 25]
- Plant response rating, Russian Thistle ([3]; 31 g ai/ha, scale of 0 to 100, 0 is no effect, 100 is complete control): 0
- Plant response rating, Russian Thistle [3, 11]: 90
- Plant response rating, Russian Thistle [3, 12]: 90

SMILES: FC(F)Oc1nn(-c2ccc(C(F)(F)F)cc2)nc1Cc1ccnc(C(F)(F)F)c1 [Compound 26]
- Plant response rating, Russian Thistle ([3]; 62 g ai/ha, scale of 0 to 100, 0 is no effect, 100 is complete control): 80
- Plant response rating, Russian Thistle [3, 11]: 95
- Plant response rating, Russian Thistle [3, 12]: 95

SMILES: Cc1nn(-c2ccnc(Cl)c2)nc1Cc1ccnc(C(F)(F)F)c1 [Compound 141]
- Plant response rating, Corn [4, 13]: 15
- Plant response rating, Corn [4, 10]: 15
- Plant response rating, Corn [4, 14]: 20
- Plant response rating, Corn [4, 15]: 20
- Plant response rating, Corn [4, 16]: 30
- Plant response rating, Sandbur [5, 13]: 10
- Plant response rating, Sandbur [5, 10]: 10
- Plant response rating, Sandbur [5, 14]: 20
- Plant response rating, Sandbur [5, 15]: 30
- Plant response rating, Sandbur [5, 16]: 35

SMILES: CCc1nn(-c2ccc(F)cc2)nc1Cc1ccnc(C(F)(F)F)c1 [Compound 154]
- Plant response rating, Corn [4, 17]: 0
- Plant response rating, Corn [4, 18]: 0
- Plant response rating, Corn [4, 19]: 0
- Plant response rating, Corn [4, 20]: 5
- Plant response rating, Corn [4, 21]: 5
- Plant response rating, Sandbur [5, 17]: 0
- Plant response rating, Sandbur [5, 18]: 30
- Plant response rating, Sandbur [5, 20]: 98
- Plant response rating, Sandbur [5, 21]: 100

SMILES: CCc1nn(-c2ccc(C(F)(F)F)cc2)nc1Cc1ccnc(C(F)(F)F)c1 [Compound 155]
- Plant response rating: Kochia [1, 6]: 80
- Plant response rating: Kochia [1, 7]: 85
- Plant response rating: Kochia [1, 8]: 85
- Plant response rating, Kochia [1, 10]: 70
- Plant response rating, Kochia [1, 17]: 30
- Plant response rating, Kochia [1, 18]: 60
- Plant response rating, Kochia [1, 19]: 65
- Plant response rating, Kochia [1, 20]: 75
- Plant response rating: Mustard, Wild [2, 6]: 100
- Plant response rating: Mustard, Wild [2, 7]: 100
- Plant response rating: Mustard, Wild [2, 8]: 100
- Plant response rating, Mustard, Wild [2, 10]: 80
- Plant response rating, Mustard, Wild [2, 17]: 55
- Plant response rating, Mustard, Wild [2, 18]: 55
- Plant response rating, Mustard, Wild [2, 19]: 100
- Plant response rating, Mustard, Wild [2, 20]: 100
- Plant response rating, Corn [4, 19]: 10
- Plant response rating, Corn [4, 20]: 15
- Plant response rating, Corn [4, 21]: 15
- Plant response rating, Sandbur [5, 20]: 100
- Plant response rating, Sandbur [5, 21]: 100

SMILES: Cc1nn(-c2ccc(F)c(C(F)(F)F)c2)nc1Cc1ccnc(C(F)(F)F)c1 [Compound 156]
- Plant response rating: Kochia [1, 6]: 80
- Plant response rating: Kochia [1, 7]: 95
- Plant response rating: Kochia [1, 8]: 90
- Plant response rating, Kochia [1, 10]: 75
- Plant response rating, Kochia [1, 17]: 10
- Plant response rating, Kochia [1, 18]: 30
- Plant response rating, Kochia [1, 19]: 65
- Plant response rating, Kochia [1, 20]: 80
- Plant response rating: Mustard, Wild [2, 6]: 95
- Plant response rating: Mustard, Wild [2, 7]: 100
- Plant response rating: Mustard, Wild [2, 8]: 100
- Plant response rating, Mustard, Wild [2, 10]: 100
- Plant response rating, Mustard, Wild [2, 17]: 10
- Plant response rating, Mustard, Wild [2, 18]: 85
- Plant response rating, Mustard, Wild [2, 19]: 95
- Plant response rating, Mustard, Wild [2, 20]: 100

SMILES: CCc1nn(-c2ccc(C(F)(F)F)cc2)nc1Oc1ccnc(C(F)(F)F)c1 [Compound 169]
- Plant response rating, Corn [4, 22]: 10
- Plant response rating, Corn [4, 10]: 5
- Plant response rating, Corn [4, 14]: 5
- Plant response rating, Corn [4, 15]: 10
- Plant response rating, Corn [4, 16]: 10
- Plant response rating, Corn [4, 17]: 0
- Plant response rating, Corn [4, 18]: 0
- Plant response rating, Corn [4, 19]: 0
- Plant response rating, Corn [4, 20]: 0
- Plant response rating, Corn [4, 21]: 0
- Plant response rating, Sandbur [5, 22]: 25
- Plant response rating, Sandbur [5, 10]: 15
- Plant response rating, Sandbur [5, 14]: 15
- Plant response rating, Sandbur [5, 15]: 20
- Plant response rating, Sandbur [5, 16]: 20
- Plant response rating, Sandbur [5, 17]: 0
- Plant response rating, Sandbur [5, 18]: 20
- Plant response rating, Sandbur [5, 20]: 65
- Plant response rating, Sandbur [5, 21]: 75

SMILES: CCc1nn(-c2ccc(F)c(F)c2)nc1Oc1ccnc(C(F)(F)F)c1 [Compound 171]
- Plant response rating, Corn [4, 17]: 0
- Plant response rating, Corn [4, 18]: 0
- Plant response rating, Corn [4, 19]: 0
- Plant response rating, Corn [4, 20]: 0
- Plant response rating, Corn [4, 21]: 5
- Plant response rating, Sandbur [5, 17]: 0
- Plant response rating, Sandbur [5, 18]: 5
- Plant response rating, Sandbur [5, 20]: 50
- Plant response rating, Sandbur [5, 21]: 50

SMILES: CCCc1nn(-c2ccc(F)c(F)c2)nc1Oc1ccnc(C(F)(F)F)c1 [Compound 172]
- Plant response rating, Corn [4, 22]: 30
- Plant response rating, Corn [4, 14]: 15
- Plant response rating, Corn [4, 16]: 20
- Plant response rating, Corn [4, 18]: 0
- Plant response rating, Corn [4, 20]: 15
- Plant response rating, Corn [4, 21]: 15
- Plant response rating, Sandbur [5, 22]: 40
- Plant response rating, Sandbur [5, 14]: 20
- Plant response rating, Sandbur [5, 16]: 30
- Plant response rating, Sandbur [5, 18]: 5
- Plant response rating, Sandbur [5, 20]: 70
- Plant response rating, Sandbur [5, 21]: 100
